Measurements: US12077503B2, “Substituted cyclic amides and their use as herbicides” (FMC CORPORATION, priority 2015, dated 2024)

Tests used:
Format in all cases: in vivo
[1] = system: Galium (catchweed bedstraw, Galium aparine); assay: Test A postemergence; conditions: Galium, post-emergence, 240 h, read-out: Plant response rating, Galium; for pest or weed control at 125 g/ha: 125 g ai/ha, Postemergence, visual injury after approximately 10 d, 0 to 100 scale where 0 is no effect and 100 is complete control; for pest or weed control at 500 g/ha: 500 g ai/ha, postemergence, visual injury, 0 to 100 scale (0 no effect, 100 complete control), approx. 10 d
Outline: (§1)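 Ratings of 0 (no effect) to 100 (complete control) come from visual comparison with untreated controls roughly 10 d after treatment. Test chemicals, formulated in a non-phytotoxic solvent mixture with surfactant, were applied either as a preemergence directed soil spray on seeded soil or postemergence to one- to two-leaf plants 2 to 10 cm tall.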

[2] = system: ryegrass, Italian (Italian ryegrass, Lolium multiflorum); assay: Test A postemergence; conditions: Lolium multiflorum, post-emergence, 240 h, read-out: Plant response rating, Ryegrass, Italian; for pest or weed control at 125 g/ha: 125 g ai/ha, Postemergence, visual injury after approximately 10 d, 0 to 100 scale where 0 is no effect and 100 is complete control; for pest or weed control at 500 g/ha: 500 g ai/ha, postemergence, visual injury, 0 to 100 scale (0 no effect, 100 complete control), approx. 10 d
Outline: as §1

corn (Zea mays) = assay: Test A postemergence; conditions: Zea mays, post-emergence, 240 h; for Corn plant response rating (crop injury, 0 = no effect, 100 = complete kill) at 125 g/ha: 125 g ai/ha, Postemergence, visual injury after approximately 10 d, 0 to 100 scale where 0 is no effect and 100 is complete control; for Corn plant response rating (crop injury, 0 = no effect, 100 = complete kill) at 500 g/ha: 500 g ai/ha, postemergence, visual injury, 0 to 100 scale (0 no effect, 100 complete control), approx. 10 d
Outline: as §1

[3] = system: ragweed (common ragweed, Ambrosia elatior); assay: Test A postemergence; conditions: Ambrosia artemisiifolia, post-emergence, 240 h, read-out: Plant response rating, Ragweed; for pest or weed control at 125 g/ha: 125 g ai/ha, Postemergence, visual injury after approximately 10 d, 0 to 100 scale where 0 is no effect and 100 is complete control; for pest or weed control at 500 g/ha: 500 g ai/ha, postemergence, visual injury, 0 to 100 scale (0 no effect, 100 complete control), approx. 10 d
Outline: as §1

Kochia (Kochia scoparia) [4] = assay: Test A postemergence; conditions: Bassia scoparia, post-emergence, 240 h, read-out: Plant response rating, Kochia; for pest or weed control at 125 g/ha: 125 g ai/ha, Postemergence, visual injury after approximately 10 d, 0 to 100 scale where 0 is no effect and 100 is complete control; for pest or weed control at 500 g/ha: 500 g ai/ha, postemergence, visual injury, 0 to 100 scale (0 no effect, 100 complete control), approx. 10 d
Outline: as §1

[5] = system: barnyardgrass (Echinochloa crus-galli); assay: Test A postemergence; conditions: Echinochloa crus-galli, post-emergence, 240 h, read-out: Plant response rating, Barnyardgrass; for pest or weed control at 125 g/ha: 125 g ai/ha, Postemergence, visual injury after approximately 10 d, 0 to 100 scale where 0 is no effect and 100 is complete control; for pest or weed control at 500 g/ha: 500 g ai/ha, postemergence, visual injury, 0 to 100 scale (0 no effect, 100 complete control), approx. 10 d
Outline: as §1

[6] = system: giant foxtail (Setaria faberii); assay: Test A postemergence; conditions: Setaria faberi, post-emergence, 240 h, read-out: Plant response rating, Foxtail, Giant; for pest or weed control at 125 g/ha: 125 g ai/ha, Postemergence, visual injury after approximately 10 d, 0 to 100 scale where 0 is no effect and 100 is complete control; for pest or weed control at 500 g/ha: 500 g ai/ha, postemergence, visual injury, 0 to 100 scale (0 no effect, 100 complete control), approx. 10 d
Outline: as §1

[7] = system: blackgrass (Alopecurus myosuroides); assay: Test A postemergence; conditions: Alopecurus myosuroides, post-emergence, 240 h, read-out: Plant response rating, Blackgrass; for pest or weed control at 125 g/ha: 125 g ai/ha, Postemergence, visual injury after approximately 10 d, 0 to 100 scale where 0 is no effect and 100 is complete control; for pest or weed control at 500 g/ha: 500 g ai/ha, postemergence, visual injury, 0 to 100 scale (0 no effect, 100 complete control), approx. 10 d
Outline: as §1

[8] = system: wheat (Triticum aestivum); assay: Test A postemergence; conditions: Triticum aestivum, post-emergence, 240 h, read-out: Plant response rating, Wheat; for plant injury at 125 g/ha: 125 g ai/ha, Postemergence, visual injury after approximately 10 d, 0 to 100 scale where 0 is no effect and 100 is complete control; for plant injury at 500 g/ha: 500 g ai/ha, postemergence, visual injury, 0 to 100 scale (0 no effect, 100 complete control), approx. 10 d
Outline: as §1

[9] = system: pigweed (Amaranthus retroflexus); assay: Test A postemergence; conditions: Amaranthus retroflexus, post-emergence, 240 h, read-out: Plant response rating, Pigweed; for pest or weed control at 125 g/ha: 125 g ai/ha, Postemergence, visual injury after approximately 10 d, 0 to 100 scale where 0 is no effect and 100 is complete control; for pest or weed control at 500 g/ha: 500 g ai/ha, postemergence, visual injury, 0 to 100 scale (0 no effect, 100 complete control), approx. 10 d
Outline: as §1

rice (Oryra sativa) = assay: Test B flooded paddy test; conditions: Oryza sativa, 250 g ai/ha, Flood; 0 to 100 scale where 0 is no effect and 100 is complete control; read-out: Rice plant response rating
Outline: (§2)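 Percent control, visually estimated after 13–15 d in the greenhouse on a 0–100 basis, compares treated pots with untreated ones; compound was put into paddy water 3 cm above the soil when plants had two leaves.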

[10] = system: barnyardgrass (Echinochloa crus-galli); assay: Test B flooded paddy test; conditions: Echinochloa crus-galli, 250 g ai/ha, Flood; 0 to 100 scale where 0 is no effect and 100 is complete control; read-out: Barnyardgrass plant response rating
Outline: as §2

[11] = system: sedge, umbrella (small-flower umbrella sedge, Cyperus difformis); assay: Test B flooded paddy test; conditions: Cyperus difformis, 250 g ai/ha, Flood; 0 to 100 scale where 0 is no effect and 100 is complete control; read-out: Sedge, Umbrella plant response rating
Outline: as §2

[12] = system: ducksalad (Heteranthera limosa); assay: Test B flooded paddy test; conditions: Heteranthera limosa, 250 g ai/ha, Flood; 0 to 100 scale where 0 is no effect and 100 is complete control; read-out: Ducksalad plant response rating
Outline: as §2

[13] = system: ryegrass, Italian (Italian ryegrass, Lolium multiflorum); assay: Test A preemergence; conditions: Lolium multiflorum, pre-emergence, 240 h; for pest or weed control at 125 g/ha: 125 g ai/ha, Preemergence, visual injury rating after approximately 10 d, read-out: Ryegrass, Italian plant response rating (0 to 100 scale, 0 is no effect, 100 is complete control); for pest or weed control at 500 g/ha: 500 g ai/ha, preemergence, visual injury rating about 10 d after treatment, 0 to 100 scale (0 no effect, 100 complete control), read-out: Ryegrass, Italian plant response rating
Outline: as §1

[14] = system: ragweed (common ragweed, Ambrosia elatior); assay: Test A preemergence; conditions: Ambrosia artemisiifolia, pre-emergence, 240 h; for pest or weed control at 125 g/ha: 125 g ai/ha, Preemergence, visual injury rating after approximately 10 d, read-out: Ragweed plant response rating (0 to 100 scale, 0 is no effect, 100 is complete control); for pest or weed control at 500 g/ha: 500 g ai/ha, preemergence, visual injury rating about 10 d after treatment, 0 to 100 scale (0 no effect, 100 complete control), read-out: Ragweed plant response rating
Outline: as §1

Kochia (Kochia scoparia) [15] = assay: Test A preemergence; conditions: Bassia scoparia, pre-emergence, 240 h; for pest or weed control at 125 g/ha: 125 g ai/ha, Preemergence, visual injury rating after approximately 10 d, read-out: Kochia plant response rating (0 to 100 scale, 0 is no effect, 100 is complete control); for pest or weed control at 500 g/ha: 500 g ai/ha, preemergence, visual injury rating about 10 d after treatment, 0 to 100 scale (0 no effect, 100 complete control), read-out: Kochia plant response rating
Outline: as §1

[16] = system: barnyardgrass (Echinochloa crus-galli); assay: Test A preemergence; conditions: Echinochloa crus-galli, pre-emergence, 240 h; for pest or weed control at 125 g/ha: 125 g ai/ha, Preemergence, visual injury rating after approximately 10 d, read-out: Barnyardgrass plant response rating (0 to 100 scale, 0 is no effect, 100 is complete control); for pest or weed control at 500 g/ha: 500 g ai/ha, preemergence, visual injury rating about 10 d after treatment, 0 to 100 scale (0 no effect, 100 complete control), read-out: Barnyardgrass plant response rating
Outline: as §1

[17] = system: giant foxtail (Setaria faberii); assay: Test A preemergence; conditions: Setaria faberi, pre-emergence, 240 h; for pest or weed control at 125 g/ha: 125 g ai/ha, Preemergence, visual injury rating after approximately 10 d, read-out: Foxtail, Giant plant response rating (0 to 100 scale, 0 is no effect, 100 is complete control); for pest or weed control at 500 g/ha: 500 g ai/ha, preemergence, visual injury rating about 10 d after treatment, 0 to 100 scale (0 no effect, 100 complete control), read-out: Foxtail, Giant plant response rating
Outline: as §1

[18] = system: pigweed (Amaranthus retroflexus); assay: Test A preemergence; conditions: Amaranthus retroflexus, pre-emergence, 240 h; for pest or weed control at 125 g/ha: 125 g ai/ha, Preemergence, visual injury rating after approximately 10 d, read-out: Pigweed plant response rating (0 to 100 scale, 0 is no effect, 100 is complete control); for pest or weed control at 500 g/ha: 500 g ai/ha, preemergence, visual injury rating about 10 d after treatment, 0 to 100 scale (0 no effect, 100 complete control), read-out: Pigweed plant response rating

Compound | pest or weed control at 125 g/ha [1] | pest or weed control at 500 g/ha [1] | pest or weed control at 125 g/ha [2] | pest or weed control at 500 g/ha [2] | Corn plant response rating (crop injury, 0 = no effect, 100 = complete kill) at 125 g/ha (corn (Zea mays)) | Corn plant response rating (crop injury, 0 = no effect, 100 = complete kill) at 500 g/ha (corn (Zea mays)) | pest or weed control at 125 g/ha [3] | pest or weed control at 500 g/ha [3] | pest or weed control at 125 g/ha (Kochia (Kochia scoparia) [4]) | pest or weed control at 500 g/ha (Kochia (Kochia scoparia) [4]) | pest or weed control at 125 g/ha [5] | pest or weed control at 500 g/ha [5] | pest or weed control at 125 g/ha [6] | pest or weed control at 500 g/ha [6] | pest or weed control at 125 g/ha [7] | pest or weed control at 500 g/ha [7] | plant injury at 125 g/ha [8] | plant injury at 500 g/ha [8] | pest or weed control at 125 g/ha [9] | pest or weed control at 500 g/ha [9] | other results
Cc1cc([C@H]2CN(C)C(=O)[C@@H]2C(=O)Nc2ccccc2F)cc(C)c1Br [Compound 1023] | 60% | 60% | 30% | 30% | 0% | 50% | 0% | 0% | 50% | 50% | 90% | 90% | 70% | 90% | 0% | 20% | 0% | 20% | 0% | 30% | pest or weed control at 250 g/ha (rice (Oryra sativa)): 20%; pest or weed control at 250 g/ha [10]: 40%; pest or weed control at 250 g/ha [11]: 0%; pest or weed control at 250 g/ha [12]: 65%; pest or weed control at 125 g/ha [13]: 50%; pest or weed control at 500 g/ha [13]: 70%; pest or weed control at 125 g/ha [14]: 0%; pest or weed control at 500 g/ha [14]: 40%; pest or weed control at 125 g/ha (Kochia (Kochia scoparia) [15]): 0%; pest or weed control at 500 g/ha (Kochia (Kochia scoparia) [15]): 0%; pest or weed control at 125 g/ha [16]: 90%; pest or weed control at 500 g/ha [16]: 90%; pest or weed control at 125 g/ha [17]: 90%; pest or weed control at 500 g/ha [17]: 90%; pest or weed control at 125 g/ha [18]: 30%; pest or weed control at 500 g/ha [18]: 30%
CSc1ccccc1NC(=O)[C@H]1C(=O)N(C)C[C@@H]1c1cc(C)c(Br)c(C)c1 [Compound 1025] | 30% | 30% | 0% | 30% | 0% | 20% | 0% | 0% | 30% | 50% | 60% | 70% | 60% | 60% | 0% | 0% | 0% | 0% | 0% | 30% | pest or weed control at 250 g/ha (rice (Oryra sativa)): 0%; pest or weed control at 250 g/ha [10]: 0%; pest or weed control at 250 g/ha [11]: 0%; pest or weed control at 250 g/ha [12]: 0%; pest or weed control at 125 g/ha [13]: 0%; pest or weed control at 500 g/ha [13]: 30%; pest or weed control at 125 g/ha [14]: 0%; pest or weed control at 500 g/ha [14]: 0%; pest or weed control at 125 g/ha (Kochia (Kochia scoparia) [15]): 0%; pest or weed control at 500 g/ha (Kochia (Kochia scoparia) [15]): 20%; pest or weed control at 125 g/ha [16]: 70%; pest or weed control at 500 g/ha [16]: 70%; pest or weed control at 125 g/ha [17]: 90%; pest or weed control at 500 g/ha [17]: 90%; pest or weed control at 125 g/ha [18]: 0%; pest or weed control at 500 g/ha [18]: 50%
